This note sets out measurements from patent publication US7365096B2, “Methods for selectively inhibiting Janus tyrosine kinase 3 (Jak3)” (Board of Regents, The University of Texas System, priority 2002, dated 2008).

Experiment [1] has as its system rat T cell line (Nb2-11c). The experiment in a line: Proliferation of rat Nb2-11c T cells, IL-2 (Jak3) versus PRL (Jak2) stimulated. It is filed as cell-based. As for the experimental part:
Cell culture and treatment. The rat T-cell line Nb2-11c, originally developed by Dr. Peter Gout (Vancouver, Canada), was grown in RPMI-1640 with 10% fetal calf serum (Intergen, cat. no. 1020-90), 2 mM L-glutamine, 5 mM HEPES, pH 7.3, and penicillin-streptomycin (50 IU/ml and 50 μg/ml, respectively), at 37° C./5% CO2. Freshly explanted normal human T lymphocytes purified by isocentrifugation (Ficoll®; EM Science, Gibbstown, N.J.) were phytohemagglutinin (PHA)-activated for 72 hours as previously described.^23 T lymphocytes were made quiescent by washing and incubating for 24 hours in RPMI-1640 medium containing 1% fetal calf serum before exposure to cytokines. […] The Mannich base 649641P (NC1153) was generously provided by Dr. Jonathan Dimmock College of Pharmacy, University of Saskatchewan, Saskatoon, Saskatchewan, Canada. All cells were then stimulated with 1 nM recombinant human IL-2 (Hoffman-LaRoche, Basel, Switzerland), IL4 or IL7 (PeproTech), or ovine prolactin (PRL) supplied by the National Hormone and Pituitary Program, National Institute of Diabetes, Digestive, and Kidney Disease (Bethesda, Md.), at 37° C. Cell pellets were frozen at −70° C.
Proliferation assays. Quiescent human primary T-cells, YT or rat Nb2-11c T-cells (5.0×10^4/well) were plated in flat-bottom, 96-well microtiter plates in 200 μl of quiescent media in the absence or presence of 1 nM IL-2, -4, -7 (PeproTech, Rock Hill, N.J.), or PRL. Next, cells were treated for 16 hours with the Mannich base drug and then pulsed for 4 hours with [^3H]-thymidine (0.5 μCi/200 μl) and harvested onto fiberglass filters. [^3H]-thymidine incorporation was analyzed by liquid scintillation counting as previously described,^23 or using standard techniques that are well known in the art.
The rat T cell line (Nb2-11c) was chosen because it responds to either PRL/Jak2 or IL-2/Jak3 stimulation.
FIG. 14B through FIG. 39B show the chemical formulas of various Mannich base compounds and others (shown as salts) that were screened for ability to inhibit proliferation in prolactin or IL2 stimulated T-cells. […]

Another experiment deals with Stat5a/b. The experiment can be described thus: Stat5a/b DNA binding, EMSA in PHA activated T-cells. The format is cell-based, human. Particulars: increasing concentrations. As for the experimental part:
EMSA. Electrophoretic mobility shift assay (EMSA). Drug or vehicle control (DMSO) treated cells were pelleted by centrifugation (20,000×g for 1 min at 4° C.) and subsequently washed in five volumes of 10 mM HEPES, pH 7.9, 10 mM KCl, 1.5 mM MgCl2, 0.5 mM DTT, […], 5 μg/ml aprotinin, 1 μg/ml pepstatin A and 2 μg/ml leupeptin, centrifuged, then lysed in the same buffer supplemented with 1% NP-40 and incubated for 20 min on ice. The nuclei-containing pellet was resuspended in equal volumes of low salt buffer (10 mM HEPES, 25% glycerol, 1.5 mM MgCl2, 20 mM KCl, 0.5 mM DTT, 0.2 mM EDTA and protease inhibitors) and high salt buffer (low salt buffer containing 800 mM KCl). This fraction was then isolated by centrifugation at 4° C. for 10 min and supernatants saved as nuclear protein extract and stored at −70° C. Gel mobility shift assays were performed to detect Stat5a/b DNA binding activity using a Stat5 DNA binding sequence corresponding to the promoter of the β-casein gene (5′-[…]-3′) or an NF-kB binding element (5′-[…]-3′). Both probes were end-labeled with [^32P]dATP. […]
In FIG. 9A, it can be seen that NC1153 inhibits Jak3 driven transcription factor-Stat5a/b in PHA activated T-cells treated with increasing concentrations of NC1153 in a dose dependent manner as measured via EMSA analysis (upper panel). […]

The subject of a further experiment is human Jurkat T-cells. The experiment in a line: Growth / DNA synthesis of non-Jak3 expressing Jurkat cells. The format is cell-based.

“Also recorded” adds a separate entry of the source. Read-outs that look alike come from different tables or passages of the source.

Consider `CN(C)CC1CCCCCCCCCC(CN(C)C)C1=O` (mixture of isomers) [649641P (NC1153)], for which the “effectiveness for inhibiting Jak3- versus Jak2-dependent proliferation” value in experiment [1] (1 nM IL-2 vs 1 nM PRL, 0-100 μM, 16 hours) is on record as 3 fold. For the same compound, the “selective inhibition of IL-2/Jak3-dependent versus PRL/Jak2-dependent T-cell proliferation” value in experiment [1] (IL-2 vs PRL stimulated) is on record as “selectively inhibits γc/Jak3-dependent but not PRL/Jak2-dependent cell proliferation”. The “inhibition of cell proliferation in response to IL-2, IL-4 and IL-7” value in experiment [1] (as printed: Nb2-11c cells) is recorded as “equally effective”. Also, the “Stat5a/b DNA binding (EMSA)” value is “inhibits; also recorded: greatly impaired” in the experiment on Stat5a/b and “inhibits” in the experiment on Stat5a/b (listed as NC1153). Further, the entries for the “cell growth / DNA synthesis of Jurkat cells” value in the experiment on human Jurkat T-cells and in the experiment on human Jurkat T-cells (listed as NC1153) were “did not inhibit DNA synthesis” and “does not block cell growth”, respectively.
